Data on eight molecules can be found in ChEMBL document CHEMBL1201862, “PubChem BioAssay data set” (2004).

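Growth conditions: 96-well plates. Treatment: test compound, 48 hours, 5 concentrations. Analysis: linear interpolation between bracketing concentrations; unreached endpoints set to highest concentration. The concentration for 50% growth inhibition is given as GI50.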 Active and inactive are the calls of the source. Rule as the data show it: active = GI50 up to about 1.1 µM and inactive = higher.

Test systems include RXF 393; BT-549; OVCAR-4; Malme-3M; OVCAR-8; HCC 2998; SW-620; RPMI-8226; UO-31; 786-0; SK-OV-3; OVCAR-3; KM12; Hs-578T; A549; SF-268; HL-60; HT-29; UACC-62.
Holding throughout (assay): NCI-60 cell line screen, 48 h

`COc1ccc2o/c(=N/c3ccccc3)c(C(N)=O)cc2c1`: the GI50 was 39.5 µM (inactive) with RXF 393; 91 µM (inactive) in the assay on BT-549; > 100 µM (inactive) with OVCAR-4; > 100 µM (inactive) in the assay with Malme-3M; > 67.5 µM (inactive) with OVCAR-8; > 100 µM (inactive) in the assay with HCC 2998. Also, the GI50 in the assay on SW-620 is > 100 µM (inactive); with RPMI-8226, > 100 µM (inactive); in the assay on UO-31, > 36.7 µM (inactive); in the assay on 786-0 it was > 57.8 µM (inactive); in the assay on SK-OV-3, 39.2 µM (inactive); in the assay on OVCAR-3, > 100 µM (inactive). In addition, the GI50 in the assay on KM12 is > 100 µM (inactive); in the assay with Hs-578T it was 42.9 µM (inactive); in the assay with A549, > 55.3 µM (inactive); with SF-268, 47.3 µM (inactive); in the assay on HL-60 it was > 100 µM (inactive).

For the molecule `CC1=NN(C(=O)CC(=O)Nc2ccccc2)C(=O)C1/N=N/c1ccc(C(=O)O)cc1` (stereo not drawn), the GI50 with RXF 393, in the assay on BT-549, in the assay with OVCAR-4, in the assay with Malme-3M, in the assay on OVCAR-8 and in the assay with HCC 2998 was > 100 µM (inactive) throughout. Also, the GI50 in the assay on HT-29, in the assay on SW-620, with UACC-62, in the assay with RPMI-8226, in the assay with UO-31 and in the assay on 786-0 was > 100 µM (inactive) each time. Besides, the GI50 in the assay on OVCAR-3 is > 100 µM (inactive); with KM12, > 100 µM (inactive); in the assay with Hs-578T, 78.7 µM (inactive); in the assay with A549, > 100 µM (inactive); in the assay with SF-268, 77.8 µM (inactive); with HL-60, > 100 µM (inactive).

For `N=c1oc2c(Br)cc(Br)cc2cc1C(=O)Nc1ccccn1`, the GI50 in the assay on RXF 393 was 75.3 µM (inactive); in the assay with BT-549, > 100 µM (inactive); in the assay on OVCAR-4 it was 68.9 µM (inactive); in the assay with Malme-3M, 52.2 µM (inactive); with OVCAR-8, 45.9 µM (inactive); in the assay on HCC 2998, > 100 µM (inactive). In addition, the GI50 with HT-29 was 44.1 µM (inactive); in the assay on SW-620, > 100 µM (inactive); with UACC-62, 74.8 µM (inactive); with RPMI-8226, 87.1 µM (inactive); in the assay with 786-0, 36.5 µM (inactive); in the assay on SK-OV-3 it was > 100 µM (inactive). Also, the GI50 in the assay on OVCAR-3 was 32.3 µM (inactive); in the assay on KM12, 56.5 µM (inactive); with Hs-578T, 64.4 µM (inactive); in the assay with A549, 65.3 µM (inactive); in the assay on SF-268 it was 78.9 µM (inactive); in the assay on HL-60, 57.5 µM (inactive).

In the case of `COC1(CC[C@@H](C)COC2OC(CO)C(O)C(O)C2O)O[C@H]2C[C@H]3[C@@H]4CC=C5C[C@@H](OC6OC(CO)C(OC7OC(C)C(O)C(O)C7O)C(O)C6OC6OC(C)C(O)C(O)C6O)CC[C@]5(C)[C@H]4CC[C@]3(C)[C@H]2[C@@H]1C` (stereo partly drawn), the GI50 is 3.41 µM (inactive) with RXF 393; 3.52 µM (inactive) with BT-549; 3.54 µM (inactive) with OVCAR-4; 3.01 µM (inactive) with Malme-3M; 3.53 µM (inactive) with OVCAR-8; 3.74 µM (inactive) in the assay with HCC 2998. Also, the GI50 with HT-29 is 2.68 µM (inactive); in the assay on SW-620, 1.14 µM (inactive); in the assay on RPMI-8226, 6.62 µM (inactive); with UO-31 it was 2.92 µM (inactive); in the assay with 786-0 it was 2.02 µM (inactive); in the assay on SK-OV-3, 1.66 µM (inactive). In addition, the GI50 in the assay with OVCAR-3 is 2.36 µM (inactive); in the assay on KM12, 2.1 µM (inactive); in the assay on Hs-578T, 2.55 µM (inactive); in the assay on A549, 2 µM (inactive); in the assay on SF-268, 3.18 µM (inactive); in the assay on HL-60, 18.2 µM (inactive).

As to `Cc1ccc(C2=CC(=O)/C(=C\C(=O)c3ccc(Br)cc3)O2)c(C)c1`, the GI50 is 4.58 µM (inactive) in the assay on RXF 393; 7.03 µM (inactive) in the assay on BT-549; 9.42 µM (inactive) with OVCAR-4; 10.5 µM (inactive) with Malme-3M; 6.58 µM (inactive) in the assay with OVCAR-8; 12.1 µM (inactive) with HCC 2998. Besides, the GI50 in the assay with HT-29 was 7.89 µM (inactive); with UACC-62 it was 9.48 µM (inactive); in the assay on RPMI-8226 it was 2.87 µM (inactive); with UO-31, 9.02 µM (inactive); with 786-0 it was 8.34 µM (inactive); in the assay on SK-OV-3, 7.74 µM (inactive). The GI50 in the assay on OVCAR-3 was 5.3 µM (inactive); with KM12, 20.4 µM (inactive); with Hs-578T it was 18.1 µM (inactive); with A549 it was 18.7 µM (inactive); with SF-268, 16.2 µM (inactive); in the assay with HL-60, 3.92 µM (inactive).

For the molecule `CCCCCCCCCCCCCCCCCCNc1ccn(C2OC(COP(=O)(O)OC3CC(n4cc(F)c(=O)[nH]c4=O)OC3COP(=O)(O)OCC3OC(n4ccc(N)nc4=O)C(O)C3O)C(O)C2O)c(=O)n1` (stereo not drawn), the GI50 with RXF 393 is 16 µM (inactive); in the assay with BT-549 it was 15.1 µM (inactive); with OVCAR-4, 41.7 µM (inactive); in the assay with Malme-3M, > 46.9 µM (inactive); in the assay on OVCAR-8 it was 3.1 µM (inactive); in the assay with HCC 2998 it was 2.35 µM (inactive). For the same molecule, the GI50 with HT-29 was 13.7 µM (inactive); in the assay with SW-620, 16.2 µM (inactive); with UACC-62, 1.1 µM (active); in the assay on RPMI-8226, 14.9 µM (inactive); in the assay on UO-31 it was 11.5 µM (inactive); in the assay with 786-0 it was 1.31 µM (inactive). In addition, the GI50 with SK-OV-3 was 19.9 µM (inactive); in the assay with OVCAR-3 it was 30.5 µM (inactive); in the assay with KM12 it was 14.4 µM (inactive); with Hs-578T, > 67.8 µM (inactive); with A549 it was 0.0906 µM (active); with HL-60, 0.26 µM (active).

Turning to `NCCCN(CCCCN(CCCN)Cc1ccccc1)Cc1ccccc1`, the GI50 with RXF 393 is 85.3 µM (inactive); with BT-549, 79.6 µM (inactive); with OVCAR-4, 28.6 µM (inactive); with Malme-3M, 33.3 µM (inactive); in the assay with OVCAR-8 it was 49.5 µM (inactive); in the assay on HCC 2998, 10.8 µM (inactive). Moreover, the GI50 in the assay with HT-29 was 17.3 µM (inactive); in the assay with SW-620, > 100 µM (inactive); in the assay on UACC-62, > 100 µM (inactive); in the assay with RPMI-8226 it was > 100 µM (inactive); in the assay on UO-31, 26.1 µM (inactive); in the assay on 786-0 it was 23.1 µM (inactive). In addition, the GI50 is 62.5 µM (inactive) with SK-OV-3; 30.4 µM (inactive) in the assay on KM12; 13 µM (inactive) with Hs-578T; 74.5 µM (inactive) with A549; 14.3 µM (inactive) in the assay on SF-268; > 100 µM (inactive) with HL-60.

Turning to `CCCCc1c2c(c(C)c3c1C(=O)OC3)Oc1ccccc1O2`, the GI50 was 0.975 µM (active) in the assay with RXF 393; 6.46 µM (inactive) in the assay on BT-549; 3.56 µM (inactive) with OVCAR-4; 0.596 µM (active) with Malme-3M; 3.67 µM (inactive) in the assay with OVCAR-8; 0.646 µM (active) in the assay on HCC 2998. Further, the GI50 was 1.02 µM (active) in the assay with SW-620; 0.535 µM (active) in the assay on UACC-62; 1.25 µM (inactive) with RPMI-8226; 5.77 µM (inactive) in the assay with UO-31; 1.5 µM (inactive) in the assay on 786-0; 1.57 µM (inactive) in the assay with SK-OV-3. Also, the GI50 with OVCAR-3 was 0.274 µM (active); in the assay with KM12, 0.815 µM (active); with Hs-578T, 0.628 µM (active); in the assay on A549, 1.73 µM (inactive); with SF-268 it was 1.64 µM (inactive); in the assay on HL-60 it was 0.316 µM (active).
